Results from ChEMBL document CHEMBL1201862, “PubChem BioAssay data set” (2004).
Activity calls are given as the source filed them.

Key:
[1] = target: T1, Tyrosine-protein phosphatase non-receptor type 22 (Homo sapiens, UniProt Q9Y2R2); assay: LYP phosphatase inhibition for selectivity, dose response, selectivity assay for LMPTP inhibitor project, biochemical, fluorescence, LYP catalytic domain (AID 652006); assay type: functional; conditions: read-out: IC50_Mean
T1 sequence (Q9Y2R2 whole entry): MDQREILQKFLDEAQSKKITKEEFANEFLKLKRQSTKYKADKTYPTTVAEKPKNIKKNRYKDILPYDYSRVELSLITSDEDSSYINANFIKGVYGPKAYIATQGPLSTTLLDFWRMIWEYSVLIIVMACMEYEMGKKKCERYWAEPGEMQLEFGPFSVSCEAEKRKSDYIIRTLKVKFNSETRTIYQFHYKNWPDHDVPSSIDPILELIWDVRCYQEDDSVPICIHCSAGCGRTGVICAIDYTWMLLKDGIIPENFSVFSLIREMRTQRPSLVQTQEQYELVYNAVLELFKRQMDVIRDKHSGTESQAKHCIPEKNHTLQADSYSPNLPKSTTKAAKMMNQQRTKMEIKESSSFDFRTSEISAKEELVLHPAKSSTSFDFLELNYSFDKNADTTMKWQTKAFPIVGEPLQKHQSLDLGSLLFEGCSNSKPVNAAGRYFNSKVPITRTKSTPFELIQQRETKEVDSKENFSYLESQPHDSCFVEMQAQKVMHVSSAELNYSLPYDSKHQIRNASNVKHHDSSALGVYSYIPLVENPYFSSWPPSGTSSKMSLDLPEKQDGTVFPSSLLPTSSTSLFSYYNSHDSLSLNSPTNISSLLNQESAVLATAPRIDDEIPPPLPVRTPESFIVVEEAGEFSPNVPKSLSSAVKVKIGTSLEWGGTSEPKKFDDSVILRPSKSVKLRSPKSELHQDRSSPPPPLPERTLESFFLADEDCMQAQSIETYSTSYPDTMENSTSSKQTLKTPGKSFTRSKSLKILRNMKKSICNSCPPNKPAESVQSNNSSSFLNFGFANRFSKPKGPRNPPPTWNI

[2] = target: T2, Low molecular weight phosphotyrosine protein phosphatase (Homo sapiens, UniProt P24666); assay type: functional; conditions: read-out: IC50_Mean
T2 sequence (P24666 whole entry): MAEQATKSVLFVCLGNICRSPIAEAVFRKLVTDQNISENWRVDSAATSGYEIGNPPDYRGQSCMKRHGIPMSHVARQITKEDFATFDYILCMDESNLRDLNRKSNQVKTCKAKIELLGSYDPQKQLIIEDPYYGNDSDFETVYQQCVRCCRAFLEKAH

[3] = target: T2, Low molecular weight phosphotyrosine protein phosphatase; assay type: functional; conditions: read-out: IC50_Mean; remark: listed apart in the source
[4] = target: T3, Carboxy-terminal domain RNA polymerase II polypeptide A small phosphatase 1 (Homo sapiens, UniProt Q9GZU7); assay: inhibitors of CTDSP1, concentration-response testing, biochemical assay, absorbance-based, actives from ultra-high-throughput screening (AID 540297); assay type: functional
T3 sequence (Q9GZU7 whole entry): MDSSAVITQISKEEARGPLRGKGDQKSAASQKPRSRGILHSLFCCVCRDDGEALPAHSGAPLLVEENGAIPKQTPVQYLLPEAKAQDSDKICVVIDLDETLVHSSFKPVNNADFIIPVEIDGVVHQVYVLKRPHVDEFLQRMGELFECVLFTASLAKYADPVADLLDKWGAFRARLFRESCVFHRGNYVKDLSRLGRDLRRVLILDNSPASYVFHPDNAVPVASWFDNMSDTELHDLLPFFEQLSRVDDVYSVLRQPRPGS

[5] = target: Beta-lactamase (Salmonella choleraesuis (strain SC-B67), UniProt Q5J463); assay: Epi-absorbance-based counterscreen for selective VIM-2 inhibitors: dose response biochemical high throughput screening assay to identify inhibitors of TEM-1 serine-beta-lactamase.
[6] = target: T4, Beta-lactamase (Pseudomonas aeruginosa, UniProt Q79MP6); assay: […] counterscreen for selective VIM-2 inhibitors: dose response biochemical high throughput screening assay to identify inhibitors of IMP-1 metallo-beta-lactamase.
[7] = target: T4, Beta-lactamase; assay: IMP-1 metallo-beta-lactamase inhibitors, dose response, selectivity assay for VIM-2 inhibitor project, biochemical, epi-absorbance (AID 1920)
[8] = target: Arf-GAP with SH3 domain, ANK repeat and PH domain-containing protein 1 (Homo sapiens, UniProt Q9ULH1); assay type: functional;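 note: biochemical fluorescence polarization dose–response screen measuring inhibition of ASAP1; ASAP1 GAP domain stimulating GTP hydrolysis by truncated human ARF1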
[9] = test system: Cryptococcus neoformans; assay: PubChem AID 686997; assay type: functional, organism-based
[10] = HEK293T cell cytotoxicity, dose response, cytotoxicity control, CellTiter-Glo luminescence, cherry-picked samples, set 4 (AID 743441); assay type: functional, cell-based; conditions: HEK293
[11] = target: Matrix metalloproteinase-14 (Homo sapiens, UniProt P50281); assay: Dose Response confirmation of uHTS hits for a small molecule inhibitors of MT1-MMP activation in a fluorescence assay set 1.; assay type: functional
[12] = target: Nonstructural protein 1 (Influenza A virus, UniProt Q194T2); assay type: functional, Influenza A virus (A/California/07/2009(H1N1))
[13] = target: ATP-dependent translocase ABCB1 (Homo sapiens, UniProt P08183); assay: ABCB1 efflux pump inhibitor potency, dose response, Jurkat-DNR cells, JC-1, flow cytometry (AID 1689); assay type: functional
[14] = target: Broad substrate specificity ATP-binding cassette transporter ABCG2 (Homo sapiens, UniProt Q9UNQ0); assay: ABCG2 efflux pump inhibitors, dose response, Ig-MXP3 cells, flow cytometry (AID 1690); assay type: functional
[15] = target: T5, Interleukin-8 (Homo sapiens, UniProt P10145); assay: Dose Response confirmation of uHTS small molecule hits for cystic fibrosis induced NFkb Inhibitors in a PAF-induced IL8 counterscreen.; assay type: functional; conditions: read-out: IC50_Mean
T5 sequence (P10145 whole entry): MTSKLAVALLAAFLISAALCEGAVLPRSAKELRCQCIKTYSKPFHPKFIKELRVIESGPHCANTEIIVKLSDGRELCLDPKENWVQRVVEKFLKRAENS

[16] = target: T5, Interleukin-8; assay: Dose Response confirmation of uHTS small molecule hits for cystic fibrosis induced NFkb Inhibitors in a TNFa-induced IL8 counterscreen.; assay type: functional; conditions: read-out: IC50_Mean
[17] = test system: HEK293; assay: inhibitors of LMP1-driven NF-kB reporter, dose response, cell-based, HEK293, luciferase, cherry-pick (AID 588343); assay type: functional, Homo sapiens; conditions: Homo sapiens, HEK293
[18] = target: Dual specificity protein phosphatase 3 (Homo sapiens, UniProt P51452); assay: VHR phosphatase inhibition, dose response, selectivity assay for STEP inhibitor project, biochemical (AID 602374); assay type: functional; conditions: read-out: IC50_Mean
[19] = target: Tyrosine-protein phosphatase non-receptor type 11 (Homo sapiens, UniProt Q06124); assay: SHP2 phosphatase inhibition, dose response, selectivity assay for STEP inhibitor project, biochemical (AID 602367); assay type: functional; conditions: read-out: IC50_Mean
[20] = target: Tyrosine-protein phosphatase non-receptor type 5 (Homo sapiens, UniProt P54829); assay: STEP phosphatase inhibitors, confirmation, biochemical, fluorescence intensity, uHTS hits (AID 602372); assay type: functional; conditions: read-out: IC50_Mean
[21] = target: ADP-ribosylation factor GTPase-activating protein 1 (Rattus norvegicus, UniProt Q62848); assay: Fluorescence polarization-based biochemical high throughput dose response screening assay to identify inhibitors of ADP-ribosylation factor GTPase activating protein 1 (ARFGAP1).; assay type: functional
[22] = target: Botulinum neurotoxin type F (Clostridium botulinum, UniProt P30996); assay: High-throughput multiplex microsphere dose response for inhibitors of toxin protease, specifically Botulinum neurotoxin light chain F protease, compounds from Cherry Pick 02.; assay type: functional; conditions: read-out: EC50_MICROM
[23] = target: Platelet-activating factor acetylhydrolase (Mus musculus, UniProt Q60963); assay: Late stage assay provider results from the probe development effort to identify inhibitors of pPAFAH: fluorescence-based dose-response biochemical gel-based competitive Activity-Based Protein Profiling (ABPP) assay for SAR compounds.; assay type: functional
[24] = intracellular Trypanosoma cruzi inhibitors in host cells – cell-based, plate reader, cherry-pick samples, set 3, dose response (AID 651818); assay type: functional;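 note: compounds incubated with infected cells for about four days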
[25] = Inhibition of T. cruzi Tulahuen strain amastigotes in L-6 muscle cells Measured in Cell-Based and Microorganism Combination System Using Plate Reader - 2138-03_Inhibitor_Dose_CherryPick_Activity.; assay type: functional; conditions: Rattus norvegicus, L6
[26] = Inhibition of Plasmodium falciparum NF54 Measured in Cell-Based System Using Plate Reader - 2138-11_Inhibitor_Dose_CherryPick_Activity.; assay type: functional
[27] = T. cruzi intracellular amastigote growth inhibition, dose response, imaging, CA-I/72 strain, bovine embryo skeletal muscle, dry powder (AID 651885); assay type: functional, cell-based
[28] = L. donovani amastigote growth inhibition, dose response, axenic amastigotes, plate reader, cherry pick (AID 651891); assay type: functional, cell-based; conditions: Leishmania donovani
[29] = T. b. rhodesiense proliferation inhibition, dose response, STIB900 strain, plate reader, cherry pick (AID 651893); assay type: functional, cell-based; conditions: Trypanosoma brucei
[30] = cytotoxicity in L-6 rat myocytes, dose response, cytotoxicity control, cell-based, plate reader, cherry-pick (AID 651896); assay type: functional
[31] = target: DNA repair protein RAD52 homolog (Homo sapiens, UniProt P43351); assay type: functional, biochemical
[32] = inhibitors of TNFa-stimulated NF-kB luciferase reporter, dose response, selectivity assay for EBV LMP1 NF-kB inhibitor project, HEK293 LMP1 reporter cells, dry powder, set 2 (AID 624369); assay type: functional
[33] = LMP1-driven NF-kB reporter inhibition, dose response, cell-based, luciferase reporter, luminescence, dry powder, set 2 (AID 624376); assay type: functional
[34] = HEK293 cell cytotoxicity, dose response, cytotoxicity control, ATP luminescence, dry powder, Set6 (AID 743142); assay type: functional, cell-based
[35] = target: Cytochrome P450 3A4 (Homo sapiens, UniProt P08684);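 note: CYP3A4 tested as one member of a cytochrome P450 panel screen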
[36] = growth suppression of PTEN-null colon cells, dose response, cell-based, HCT116 PTEN knockout (AID 1047); assay type: functional;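 note: HCT116 colon tumor cells with PTEN knocked out; cells exposed to compound for 60 hours before readout; potency for loss of cell viability measured by luminescence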
[37] = growth suppression of beta-catenin-knockout colon cells, dose response, cell-based, HCT116, human colon tumor (AID 1045); assay type: functional;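 note: HCT116 colon tumor cells with beta catenin knocked out; cells exposed to compound for 60 hours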
[38] = target: DNA repair and recombination protein RAD54-like (Homo sapiens, UniProt Q92698); assay: inhibitors of human RAD54 branch migration, confirmation, biochemical, fluorescence, cherry-picked samples, dose series (AID 651657); assay type: functional

T4 sequence (Q79MP6 whole entry): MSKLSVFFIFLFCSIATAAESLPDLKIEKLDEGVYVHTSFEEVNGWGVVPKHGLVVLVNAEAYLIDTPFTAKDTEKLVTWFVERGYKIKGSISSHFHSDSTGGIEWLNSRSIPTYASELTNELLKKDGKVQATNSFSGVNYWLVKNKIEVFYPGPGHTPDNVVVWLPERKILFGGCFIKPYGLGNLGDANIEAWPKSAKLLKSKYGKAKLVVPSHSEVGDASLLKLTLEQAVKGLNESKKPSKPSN
Chain of Botulinum neurotoxin type F (P30996 1-436 limits assumed): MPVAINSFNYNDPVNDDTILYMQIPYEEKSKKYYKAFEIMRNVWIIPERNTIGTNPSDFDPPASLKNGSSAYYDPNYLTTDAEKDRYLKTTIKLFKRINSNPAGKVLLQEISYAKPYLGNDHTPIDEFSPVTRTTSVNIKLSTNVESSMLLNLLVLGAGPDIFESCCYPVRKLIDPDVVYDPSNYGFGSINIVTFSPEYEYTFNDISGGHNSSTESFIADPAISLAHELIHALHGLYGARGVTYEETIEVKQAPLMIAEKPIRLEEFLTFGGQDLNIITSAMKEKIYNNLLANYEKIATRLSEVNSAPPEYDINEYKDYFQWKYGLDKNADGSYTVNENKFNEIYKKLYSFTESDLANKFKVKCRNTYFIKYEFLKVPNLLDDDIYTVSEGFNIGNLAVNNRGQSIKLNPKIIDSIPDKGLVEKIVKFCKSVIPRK
Chain of Arf-GAP with SH3 domain, ANK repeat and PH domain-containing protein 1 (Q9ULH1 whole entry, the tested form may be a part): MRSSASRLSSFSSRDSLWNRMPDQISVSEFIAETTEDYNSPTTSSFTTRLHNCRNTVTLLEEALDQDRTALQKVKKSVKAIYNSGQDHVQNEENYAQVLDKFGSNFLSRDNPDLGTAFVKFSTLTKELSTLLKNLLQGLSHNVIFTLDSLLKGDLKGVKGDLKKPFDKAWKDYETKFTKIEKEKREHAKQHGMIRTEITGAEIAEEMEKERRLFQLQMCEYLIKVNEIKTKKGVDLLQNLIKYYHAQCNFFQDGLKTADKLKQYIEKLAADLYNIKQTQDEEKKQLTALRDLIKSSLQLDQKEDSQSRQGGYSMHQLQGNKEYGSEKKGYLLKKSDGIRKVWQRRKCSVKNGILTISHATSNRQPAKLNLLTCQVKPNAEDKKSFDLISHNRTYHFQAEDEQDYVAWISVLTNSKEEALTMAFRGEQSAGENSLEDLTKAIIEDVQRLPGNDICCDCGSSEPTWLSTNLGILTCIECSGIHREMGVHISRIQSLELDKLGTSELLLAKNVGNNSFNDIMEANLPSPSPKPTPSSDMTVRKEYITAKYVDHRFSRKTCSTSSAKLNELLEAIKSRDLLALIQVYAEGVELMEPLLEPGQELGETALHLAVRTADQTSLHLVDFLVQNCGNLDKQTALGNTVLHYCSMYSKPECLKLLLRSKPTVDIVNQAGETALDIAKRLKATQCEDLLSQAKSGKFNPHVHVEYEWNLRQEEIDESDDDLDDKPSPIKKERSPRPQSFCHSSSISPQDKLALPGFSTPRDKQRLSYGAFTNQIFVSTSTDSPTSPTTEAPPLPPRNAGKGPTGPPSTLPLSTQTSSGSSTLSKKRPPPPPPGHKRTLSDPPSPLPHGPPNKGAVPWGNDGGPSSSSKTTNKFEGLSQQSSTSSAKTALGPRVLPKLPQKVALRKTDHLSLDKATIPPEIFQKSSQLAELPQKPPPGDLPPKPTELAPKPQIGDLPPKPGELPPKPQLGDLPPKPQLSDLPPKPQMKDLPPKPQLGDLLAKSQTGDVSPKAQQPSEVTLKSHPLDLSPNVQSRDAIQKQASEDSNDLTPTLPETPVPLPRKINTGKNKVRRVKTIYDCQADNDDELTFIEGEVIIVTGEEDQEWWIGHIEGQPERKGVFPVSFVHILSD
Chain of Nonstructural protein 1 (Q194T2 whole entry): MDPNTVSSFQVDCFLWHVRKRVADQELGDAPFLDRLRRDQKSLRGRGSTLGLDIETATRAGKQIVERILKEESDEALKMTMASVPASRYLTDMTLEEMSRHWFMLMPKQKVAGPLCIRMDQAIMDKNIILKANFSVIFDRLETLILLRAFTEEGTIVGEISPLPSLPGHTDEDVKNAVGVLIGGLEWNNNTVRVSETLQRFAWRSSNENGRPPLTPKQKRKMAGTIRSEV
Chain of Cytochrome P450 3A4 (P08684 whole entry): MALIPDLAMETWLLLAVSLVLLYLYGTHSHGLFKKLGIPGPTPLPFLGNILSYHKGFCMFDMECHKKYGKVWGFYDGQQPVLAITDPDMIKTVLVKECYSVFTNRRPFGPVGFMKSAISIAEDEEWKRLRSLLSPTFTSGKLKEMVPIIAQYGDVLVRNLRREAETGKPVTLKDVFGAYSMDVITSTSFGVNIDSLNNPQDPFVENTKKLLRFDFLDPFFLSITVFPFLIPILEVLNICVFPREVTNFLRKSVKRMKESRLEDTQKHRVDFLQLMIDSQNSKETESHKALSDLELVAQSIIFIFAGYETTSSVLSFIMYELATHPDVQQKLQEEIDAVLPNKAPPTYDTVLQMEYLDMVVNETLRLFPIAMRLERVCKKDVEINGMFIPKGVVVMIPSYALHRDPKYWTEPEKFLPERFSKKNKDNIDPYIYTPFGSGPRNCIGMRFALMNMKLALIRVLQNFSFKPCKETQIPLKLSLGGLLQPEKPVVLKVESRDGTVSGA
Chain of Beta-lactamase (Salmonella choleraesuis (strain SC-B67), UniProt Q5J463) (Q5J463 whole entry): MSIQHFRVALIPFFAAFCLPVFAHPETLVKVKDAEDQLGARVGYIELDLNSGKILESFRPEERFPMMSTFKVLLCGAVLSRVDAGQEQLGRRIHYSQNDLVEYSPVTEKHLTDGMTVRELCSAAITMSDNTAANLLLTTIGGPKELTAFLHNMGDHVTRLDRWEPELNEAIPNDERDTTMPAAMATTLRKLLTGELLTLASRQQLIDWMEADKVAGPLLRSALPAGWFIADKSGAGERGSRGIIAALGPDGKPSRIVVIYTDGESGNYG
Chain of ATP-dependent translocase ABCB1 (P08183 whole entry): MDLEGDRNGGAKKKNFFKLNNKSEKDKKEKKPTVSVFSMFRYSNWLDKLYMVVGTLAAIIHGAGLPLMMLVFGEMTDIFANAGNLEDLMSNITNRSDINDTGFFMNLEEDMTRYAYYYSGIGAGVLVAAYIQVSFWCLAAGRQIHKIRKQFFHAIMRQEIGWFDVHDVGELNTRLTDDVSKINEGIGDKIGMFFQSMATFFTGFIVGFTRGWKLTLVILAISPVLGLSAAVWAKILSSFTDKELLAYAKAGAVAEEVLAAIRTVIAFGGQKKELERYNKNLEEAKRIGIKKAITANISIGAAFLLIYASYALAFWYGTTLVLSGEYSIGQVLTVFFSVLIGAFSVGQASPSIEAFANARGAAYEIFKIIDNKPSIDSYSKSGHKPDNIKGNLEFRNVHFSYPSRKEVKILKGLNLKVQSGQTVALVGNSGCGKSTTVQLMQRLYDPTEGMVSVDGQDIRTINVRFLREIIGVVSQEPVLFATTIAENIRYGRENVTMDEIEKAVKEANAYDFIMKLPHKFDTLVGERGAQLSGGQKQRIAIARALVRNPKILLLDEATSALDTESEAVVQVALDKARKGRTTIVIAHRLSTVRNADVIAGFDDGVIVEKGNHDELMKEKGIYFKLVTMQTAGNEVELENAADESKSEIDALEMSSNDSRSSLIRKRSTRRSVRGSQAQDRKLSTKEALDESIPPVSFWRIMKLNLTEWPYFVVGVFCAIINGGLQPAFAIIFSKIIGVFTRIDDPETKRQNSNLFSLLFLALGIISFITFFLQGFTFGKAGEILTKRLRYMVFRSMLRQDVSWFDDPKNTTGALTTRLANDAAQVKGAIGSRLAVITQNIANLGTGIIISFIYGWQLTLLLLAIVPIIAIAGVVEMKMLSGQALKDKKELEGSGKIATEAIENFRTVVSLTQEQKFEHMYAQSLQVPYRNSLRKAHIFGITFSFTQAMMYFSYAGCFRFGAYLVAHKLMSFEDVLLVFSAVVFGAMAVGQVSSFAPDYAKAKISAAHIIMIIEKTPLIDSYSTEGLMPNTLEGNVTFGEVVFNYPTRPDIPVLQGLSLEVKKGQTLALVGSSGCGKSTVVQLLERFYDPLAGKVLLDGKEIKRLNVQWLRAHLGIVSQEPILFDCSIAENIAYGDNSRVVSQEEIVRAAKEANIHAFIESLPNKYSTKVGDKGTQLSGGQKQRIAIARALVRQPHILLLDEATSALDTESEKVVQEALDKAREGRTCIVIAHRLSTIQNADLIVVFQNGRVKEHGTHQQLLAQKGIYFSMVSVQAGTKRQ
Chain of Broad substrate specificity ATP-binding cassette transporter ABCG2 (Q9UNQ0 whole entry): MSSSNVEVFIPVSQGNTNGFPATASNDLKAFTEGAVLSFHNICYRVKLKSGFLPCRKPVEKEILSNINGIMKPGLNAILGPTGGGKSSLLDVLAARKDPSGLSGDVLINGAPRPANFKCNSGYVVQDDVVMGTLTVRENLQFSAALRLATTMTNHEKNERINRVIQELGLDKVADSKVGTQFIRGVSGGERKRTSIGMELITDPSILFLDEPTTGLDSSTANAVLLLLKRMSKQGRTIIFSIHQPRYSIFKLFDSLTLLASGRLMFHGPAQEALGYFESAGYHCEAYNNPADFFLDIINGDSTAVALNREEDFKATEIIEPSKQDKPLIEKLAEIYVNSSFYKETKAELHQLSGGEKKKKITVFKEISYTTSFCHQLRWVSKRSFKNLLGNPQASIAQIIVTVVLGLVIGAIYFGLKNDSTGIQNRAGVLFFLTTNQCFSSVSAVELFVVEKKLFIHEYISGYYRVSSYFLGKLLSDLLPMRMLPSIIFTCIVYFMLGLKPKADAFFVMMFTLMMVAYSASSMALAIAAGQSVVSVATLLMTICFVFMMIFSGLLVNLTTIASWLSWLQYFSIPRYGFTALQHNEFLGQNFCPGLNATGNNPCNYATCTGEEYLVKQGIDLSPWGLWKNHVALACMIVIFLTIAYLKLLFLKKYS
Chain of Dual specificity protein phosphatase 3 (P51452 whole entry): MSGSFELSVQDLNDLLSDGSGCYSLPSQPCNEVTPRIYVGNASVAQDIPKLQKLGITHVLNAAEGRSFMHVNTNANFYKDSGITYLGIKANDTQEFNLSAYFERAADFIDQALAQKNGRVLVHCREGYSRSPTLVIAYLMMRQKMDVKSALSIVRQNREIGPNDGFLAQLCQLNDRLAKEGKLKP

SMILES: Cc1cc2oc(=O)cc(-c3cc4ccccc4o3)c2cc1O
- IC50 [1]: 29.1 µM (inactive)
- IC50 [2]: 21.5 µM (inactive)
- IC50 [3]: 20.7 µM (inactive)
- IC50 [4]: 3.8 µM (active)

SMILES: S=c1[nH]nc(-c2cccs2)n1Cc1ccccc1
- IC50 [5]: > 59.6 µM (inactive)
- IC50 [6]: > 59.6 µM (inactive)
- IC50 [7]: > 59.6 µM (inactive)

SMILES: CC(=O)c1cccc(NC(=O)CSc2ccc(-c3ccc4c(c3)OCO4)nn2)c1
- IC50 [8]: 33.9 µM (inactive)

SMILES: Cc1cc(Cl)ccc1N=C(S)NCc1ccc(F)cc1
- AC50 [9]: > 70 µM (inactive)

SMILES: Cc1cc(C)c(OCCNC(=O)c2ccccc2Sc2ccccc2C#N)c(C)c1
- AC50 [10]: > 52 µM (inactive)

SMILES: CCCN1C(=O)/C(=C2/C=Cc3ccccc3N2CC)SC1=S
- IC50 [11]: 29.7 µM (inactive)
- IC50 [12]: 5.77 µM (active)

SMILES: CCOC(=O)c1cccc(NC(=O)c2cnc3ccccc3n2)c1
- EC50 [13]: 30.7 µM (inactive)
- EC50 [14]: 11.8 µM (active)

SMILES: COc1ccccc1[C@]1(C)ON(c2ccccc2C(F)(F)F)C1=O
- IC50 [15]: 8 µM (active)
- IC50 [16]: 24.3 µM (active)
- AC50 [17]: 7.34 µM (active)

SMILES: NS(=O)(=O)c1ccccc1
- IC50 [18]: 1.5 µM (active)
- IC50 [19]: 8.42 µM (active)
- IC50 [20]: 28.6 µM (inactive)

SMILES: COc1ccc(-n2c(=O)c3c4c(sc3n3cnnc23)CC(C)CC4)cc1 (centres undefined)
- IC50 [21]: 23.1 µM (inactive)

SMILES: COc1ccc(C(CNC(=O)c2ccc(OC)c(S(=O)(=O)N3CCCC3)c2)N2CCCC2)cc1 (centres undefined)
- EC50 [22]: > 20 µM (inactive)

SMILES: Cc1cc(N2CCN(C(=O)Oc3ccc([N+](=O)[O-])cc3)CC2)c2ccccc2n1
- IC50 [23]: 0.179 µM (active)
- IC50 [3]: 25.4 µM (inactive)

SMILES: C[C@H]1CN([C@@H](C)CO)C(=O)c2cccc(NC(=O)c3ccncc3)c2O[C@@H]1CN(C)Cc1ccc(-c2ccccc2)cc1
- AC50 [24]: 0.075 µM (active)
- IC50 [25]: 1.14 µM (active)
- IC50 [26]: 1.14 µM (active)
- IC50 [27]: 10 µM (inconclusive)
- IC50 [28]: 6.47 µM (inactive)
- IC50 [29]: 6.41 µM (inactive)
- IC50 [30]: 17.5 µM (active)

SMILES: Cc1cc(N2CCNC[C@@H]2C)ccc1N1CC[C@@H](O)C1
- AC50 [31]: 4.37 µM (active)

SMILES: C/C=C/c1cccc(-c2nc(C(=O)Nc3nccs3)cc3c2[C@@H](CCO)N(C(=O)NC(C)C)C3)c1
- AbsAC35 [32]: 58.58 µM
- AbsAC35 [33]: 118.9 µM

SMILES: O=C(Cc1ccc(Cl)cc1)NCCC(=O)N[C@@H]1CCCc2ccccc21
- AC50 [34]: 5.41 µM (active)

SMILES: CCOc1ccc2nc(C)cc(Nc3ccc4c(c3)OCCO4)c2c1
- AC50 [35]: 25.1 µM (inconclusive)
- EC50 [36]: 14.7 µM (active)
- EC50 [37]: 11.3 µM (active)
- AC50 [38]: 25 µM (active)
